Measurements taken from the NIST ThermoML archive (doi:10.1016/j.jct.2004.10.005).

Columns and labels:
[1] = molar heat capacity at constant pressure; details: 101.33 kPa
[2] = Molar enthalpy of transition or fusion

BrC12CC3CC(CC(C3)C1)C2 [1-bromotricyclo[3.3.1.1(3,7)]decane]
Details | Triple point temperature [K]
Crystal 1, DTA | 391.8
Crystal 2, Adiabatic calorimetry | 309.9
Crystal 2, DTA | 309.8
Crystal 3, Adiabatic calorimetry | 282.2
Crystal 4, Adiabatic calorimetry | 31

[1]
Details | molar heat capacity at constant pressure [J/K/mol]
5 K, Crystal 4, Vacuum adiabatic calorimetry | 0.6485
10 K, Crystal 4, Vacuum adiabatic calorimetry | 4.755
15 K, Crystal 4, Vacuum adiabatic calorimetry | 11.51
20 K, Crystal 4, Vacuum adiabatic calorimetry | 18.36
25 K, Crystal 4, Vacuum adiabatic calorimetry | 24.35
30 K, Crystal 4, Vacuum adiabatic calorimetry | 29.52
31 K, Crystal 3, Vacuum adiabatic calorimetry | 30.48
31 K, Crystal 4, Vacuum adiabatic calorimetry | 30.48
35 K, Crystal 3, Vacuum adiabatic calorimetry | 33.96
40 K, Crystal 3, Vacuum adiabatic calorimetry | 37.77
45 K, Crystal 3, Vacuum adiabatic calorimetry | 41.08
50 K, Crystal 3, Vacuum adiabatic calorimetry | 44.09
60 K, Crystal 3, Vacuum adiabatic calorimetry | 49.73
70 K, Crystal 3, Vacuum adiabatic calorimetry | 55.13
80 K, Crystal 3, Vacuum adiabatic calorimetry | 60.5
90 K, Crystal 3, Vacuum adiabatic calorimetry | 65.87
100 K, Crystal 3, Vacuum adiabatic calorimetry | 71.25
110 K, Crystal 3, Vacuum adiabatic calorimetry | 76.65
120 K, Crystal 3, Vacuum adiabatic calorimetry | 82.11
130 K, Crystal 3, Vacuum adiabatic calorimetry | 87.63
140 K, Crystal 3, Vacuum adiabatic calorimetry | 93.24
150 K, Crystal 3, Vacuum adiabatic calorimetry | 99.03
160 K, Crystal 3, Vacuum adiabatic calorimetry | 105
170 K, Crystal 3, Vacuum adiabatic calorimetry | 111.2
180 K, Crystal 3, Vacuum adiabatic calorimetry | 117.7
190 K, Crystal 3, Vacuum adiabatic calorimetry | 124.4
200 K, Crystal 3, Vacuum adiabatic calorimetry | 131.5
210 K, Crystal 3, Vacuum adiabatic calorimetry | 138.9
220 K, Crystal 3, Vacuum adiabatic calorimetry | 146.5
230 K, Crystal 3, Vacuum adiabatic calorimetry | 154.9
240 K, Crystal 3, Vacuum adiabatic calorimetry | 164.8
250 K, Crystal 3, Vacuum adiabatic calorimetry | 175.5
260 K, Crystal 3, Vacuum adiabatic calorimetry | 185.9
270 K, Crystal 3, Vacuum adiabatic calorimetry | 195.4
273.15 K, Crystal 3, Vacuum adiabatic calorimetry | 198.1
280 K, Crystal 3, Vacuum adiabatic calorimetry | 203.6
282.2 K, Crystal 2, Vacuum adiabatic calorimetry | 205.2
282.2 K, Crystal 3, Vacuum adiabatic calorimetry | 205.2
290 K, Crystal 2, Vacuum adiabatic calorimetry | 210.6
298.15 K, Crystal 2, Vacuum adiabatic calorimetry | 215.4
300 K, Crystal 2, Vacuum adiabatic calorimetry | 216.5
309.9 K, Crystal 1, Vacuum adiabatic calorimetry | 246.3
309.9 K, Crystal 2, Vacuum adiabatic calorimetry | 221.9
310 K, Crystal 1, Vacuum adiabatic calorimetry | 246.5
320 K, Crystal 1, Vacuum adiabatic calorimetry | 257.5
330 K, Crystal 1, Large sample (1 g) DSC | 279.7
340 K, Crystal 1, Large sample (1 g) DSC | 297
350 K, Crystal 1, Large sample (1 g) DSC | 302.1
360 K, Crystal 1, Large sample (1 g) DSC | 305.2
370 K, Crystal 1, Large sample (1 g) DSC | 305.7
380 K, Crystal 1, Large sample (1 g) DSC | 305.9
390 K, Crystal 1, Large sample (1 g) DSC | 306.1
391.8 K, Crystal 1, Large sample (1 g) DSC | 306.1

[1], Liquid, Large sample (1 g) DSC
Details | molar heat capacity at constant pressure [J/K/mol]
391.8 K | 311.4
400 K | 311.6
410 K | 312
420 K | 312.3
430 K | 312.7

[2]
Details | Molar enthalpy of transition or fusion [kJ/mol]
Crystal 1, DSC | 3.97
Crystal 2, Adiabatic calorimetry | 7.42
Crystal 2, DSC | 7.51
Crystal 3, Adiabatic calorimetry | 1.387
Crystal 4, Adiabatic calorimetry | 0.00144
